Measurements as given in PMC12040169 (PLOS Biology, 2025).

Test: in vitro
Conditions: human, hela cells, % viability

Structure (SMILES) | viability at 28.5 h, 10 µM | viability at 28.5 h, 10 µM (bulk resorufin, single well)
COc1cc(C(O)c2cc3c(cc2CO)OCO3)cc(OC)c1OC (stereo not drawn) [CBK200098] | 100% | –
O=C1NC2(CCN(C(=O)Cc3ccc(-c4ccccc4)cc3)CC2)Nc2ccccc21 [CBK286309] | 101% | –
COc1cncc(-c2cncc(Nc3ccccc3)n2)c1 [CBK065435] | 113% | –
O=C(CSc1ccccn1)Nc1ccc2ccccc2c1 [CBK263860] | 101% | –
COc1ccc(-c2ccccc2NS(=O)(=O)c2ccc3c(c2)CCC(=O)N3)cc1 [CBK286370] | 96.8% | –
Cc1c(C(=O)N2CCC[C@H]2[C@H](O)c2nccs2)oc2ccccc12 [CBK284281] | 100% | –
CCN(Cc1ccncc1)C(=O)Nc1ccc2[nH]ccc2c1 [CBK155136] | 99.5% | –
CCn1ncnc1CN(c1cccc(CO)c1)C1Cc2ccccc2C1 [CBK304173] | 111% | –
NC(=O)c1ccc(-c2cncc(NCc3ccco3)n2)cc1 [CBK065383] | 85.6% | –
COc1cc(/C=C2\C(=O)NC(=O)N(c3ccc([N+](=O)[O-])cc3)C2=O)ccc1OCC(=O)O [CBK265418] | – | 100%
Cc1ccc(-c2noc(CNC(=O)CSc3ccccc3)n2)cc1 [CBK270199] | 91.5% | –
Cn1c(SCC(=O)c2ccc(O)c(O)c2)nnc1-c1ccccc1 [CBK262544] | 81.5% | –
COc1ncccc1C(=O)N1CCN(CCc2ccccc2)CC1 [CBK200226] | 88.4% | –
NCCCCCCNc1ncnc2c1ncn2[C@H]1C[C@@H](O)[C@@H](CO)O1 [CBK201260] | 105% | –
O=C(NCc1ccccn1)C(=O)N/N=C/c1ccccc1O [CBK262157] | 85.4% | –
CCOC(=O)N1CCC(NC(=O)c2cnn3c(C)c(Cc4ccccc4)c(C)nc23)CC1 [CBK160293] | 90.7% | –
N=c1c2c3c(sc2ncn1CCCN1CCOCC1)CCCC3 [CBK268323] | 94.6% | –
CN(C)S(=O)(=O)N1CCN(Cc2ccccc2)CC1 [CBK263638] | 109% | –
COc1ccc(-c2noc([C@@H]3C[C@@H](O)CN3Cc3cccc(C#N)c3)n2)cc1 [CBK288843] | 92.4% | –
COc1ccc(CCC(=O)N2CCCc3c(cnn3C)C2)cc1 [CBK285326] | 111% | –
Cc1nnc2sc(-c3cccc(NC(=S)NC(=O)c4cc5ccccc5o4)c3)nn12 [CBK267282] | 87.4% | –
COc1ccc(S(=O)(=O)N(C)CC(=O)NCc2cccnc2)cc1Cl [CBK268089] | 108% | –
OCC1CCCN1c1cncc(-c2cccc3ccccc23)n1 (stereo not drawn) [CBK065509] | 91.1% | –

Structure (SMILES) | viability at 28.5 h, 10 µM | viability at 28.5 h, 10 µM (bulk resorufin, single well)
O=C(Nc1cc2ccccc2c(N2CCNCC2)n1)c1cnccn1 [CBK036346T] | 95.4% | –
Cc1c(S(=O)(=O)Nc2ccc3cn[nH]c3c2)cnn1-c1ccccc1 [CBK067149] | 92.4% | –
CN(C)CCN(Cc1ccccc1)C(=O)NCc1ccc(Cl)cc1 [CBK155106] | 94.2% | –
COC(=O)c1c(NC(=S)NCCn2cc(Br)cn2)sc2c1CCC(C)C2 (stereo not drawn) [CBK266886] | 89.8% | –
CCC(O)CNS(=O)(=O)c1ccc(C(C)C)cc1 (stereo not drawn) [CBK043543] | 91.6% | –
COC(=O)[C@@H]1Cc2ncn(C(C)C)c2CN1C(=O)C1CCCCC1 [CBK288989] | 98.9% | –
CS(=O)(=O)N1CCN(c2ccc(NC(=O)CSc3nc(-c4ccccc4)cs3)cc2)CC1 [CBK267934] | 91.2% | –
Cc1ccc(C)c(-c2csc(NS(=O)(=O)c3cccc(C(=O)O)c3)n2)c1 [CBK296696] | 86.7% | –
CCCNC(=O)c1ccc(NC(=O)NC(CC)c2ccnn2C)c(C)c1 (stereo not drawn) [CBK307608] | 104% | –
COc1cc(-c2ccc3ccc(N)nc3n2)cc(OC)c1OC [CBK061866] | 90.6% | –
O=C(NCc1ccccc1)C1CCN(C(=O)Cc2c(F)cccc2Cl)CC1 [CBK297919] | 96.6% | –
Cc1nc2c(c(=O)[nH]1)CN(C(=O)c1cc(C3CC3)oc1C)CC2 [CBK283650] | 103% | –
Cc1nn(C)cc1CN1CCC(C(=O)NCCc2ccccc2)C1 (stereo not drawn) [CBK281968] | 111% | –
Cc1nnc(SCC(=O)n2c3c(c4ccccc42)CCCC3)n1C [CBK268351] | 111% | –
Cc1cnc(CNC(=O)N2CCN(Cc3ccccc3)CC2)cn1 [CBK155627] | 99.3% | –
C#CCNC(=O)N1CCC(c2c[nH]c3ccccc23)CC1 [CBK305034] | 87.4% | –
COc1ccc(C2c3c(-c4cc(C)c(C)cc4O)n[nH]c3C(=O)N2Cc2cccnc2)cc1OC (stereo not drawn) [CBK268846] | 106% | –
Nn1cnnc1SC1CCCCC1NS(=O)(=O)c1ccccc1 (stereo not drawn) [CBK266361] | 95.7% | –
CC(=O)c1cc2cnccc2[nH]c1=O [CBK089771] | 86.5% | –
Cc1ccn(CCC(=O)N2CCCC(c3cc4cccnc4[nH]3)C2)n1 (stereo not drawn) [CBK284927] | 99.7% | –
CN1CCCCCC1c1nc(-c2ccccc2)nn1CCCO (stereo not drawn) [CBK307653] | 95.9% | –
Cc1cc(NCC2(CO)CCOCC2)nc(N2CCCC2)n1 [CBK307005] | 85.8% | –
O=C(c1cnc2cc(Cl)ccc2c1O)N1CCN(c2ncccn2)CC1 [CBK107358] | 108% | –

Structure (SMILES) | viability at 28.5 h, 10 µM | viability at 28.5 h, 10 µM (bulk resorufin, single well)
Cc1ccc(N(CC(=O)Nc2cccc3ccccc23)S(=O)(=O)c2ccc(F)cc2)cc1 [CBK262707] | 94.7% | –
CC1(C)CC(NC(=O)CN2CCCCC2)CC(C)(C)N1 [CBK261956] | 92.4% | –
CC(=O)Nc1ccc(C(=O)N2CCNC(=O)C2Cc2ccccc2-c2cccc(C)c2)cc1 (stereo not drawn) [CBK285837] | 106% | –
COc1cc(C(=O)Nc2nc(Cc3n[nH]c(=S)n3C)cs2)ccc1C [CBK296683] | 90.6% | –
CCOc1ccc(N2C(=O)NC(=O)/C(=C\NC(C)(CO)CO)C2=O)cc1 [CBK261437] | – | 99.5%
Cc1nc[nH]c1CN(Cc1cccc(F)c1)CC1CCCO1 (stereo not drawn) [CBK282525] | 105% | –
CCOC(=O)c1cnn2c(O)cc(CN3CCCCC3)nc12 [CBK305585] | 101% | –
Clc1nccnc1N1CCCC1 [CBK083594] | 101% | –
O=C(O)c1ccc(NS(=O)(=O)c2cc(Cl)sc2Cl)cc1 [CBK034046] | 99.9% | –
O=C(CC1(C(F)(F)F)NCCN1)c1ccco1 [CBK022373] | 82.6% | –
Cc1csc2c(N3CCC(OCCN4CCCC4)CC3)ncnc12 [CBK304095] | 84% | –
NC1CC(c2cc(NCCOc3ccccc3Cl)ncn2)C1 (stereo not drawn) [CBK307167] | 73.7% | –
CCOC(=O)N1CCC(NC(=O)CCC(=O)O)CC1 [CBK286569] | 91.5% | –
Cc1csc(C(Cc2ccsc2)NC(=O)C2CC3C=CC2O3)n1 (stereo not drawn) [CBK285108] | 102% | –
O=C(Nc1ccc(N2CCNCC2)nc1)c1cccs1 [CBK029430T] | 111% | –
CN(C)c1cccc(-c2cnc3[nH]c(=O)n(-c4ccc5[nH]ccc5c4)c3n2)c1 [CBK064682] | 103% | –
COc1ccc(CNC(=O)c2cc(S(=O)(=O)N3CCCCC3)cs2)cc1 [CBK307590] | 85.9% | –
COCCN(C(=O)c1nc2cccnc2s1)C1CCS(=O)(=O)C1 (stereo not drawn) [CBK304091] | 97% | –
CCn1c2cc(C)oc2c2cnn(CC(=O)N3CCCCC3)c(=O)c21 [CBK284220] | 90.2% | –
CN(C)CCN1CCN(c2cncc(-c3cccc(C(=O)O)c3)n2)CC1 [CBK065443] | 104% | –
CC(C)(C)CC(=O)N[C@H]1C[C@H]2C(=O)Nc3ccccc3C(=O)N2C1 [CBK289352] | 96.2% | –
CC1CCC(N(C)Cc2nc3sc4c(c3c(=O)[nH]2)CCC4)CC1 (stereo not drawn) [CBK305876] | 88.7% | –
CCOc1cc(NC2CCN(C(=O)NCC(F)F)CC2)ncn1 [CBK305485] | 85.6% | –

Structure (SMILES) | viability at 28.5 h, 10 µM | viability at 28.5 h, 10 µM (bulk resorufin, single well)
CC(NC(=O)N(Cc1c[nH]c(-c2ccccc2)n1)CC(C)(C)CN)c1cccc2ccccc12 (stereo not drawn) [CBK026801C] | 96.3% | –
CC(C)(C)c1ccc(-c2nc(N)cc3ccccc23)cc1 [CBK085720] | 109% | –
C#CCOc1cccc2oc(CCC)cc(=O)c12 [CBK005628] | 87.6% | –
CCNC(=O)c1ccc(-c2ccc(OC(F)(F)F)cc2)nc1 [CBK156230] | 110% | –
COc1ccc(CCC(=O)Nc2cccc(OCCC3CCNCC3)c2)cc1OC [CBK138350] | 95.6% | –
Cc1cc(COC(=O)Nc2ccc3nc(C)ccc3c2)cc(C)n1 [CBK200127] | 90.5% | –
O=C(CCN1CCN(CCO)CC1)Nc1ccc(F)c(F)c1 [CBK264316] | 100% | –
OC(COc1ccc(-c2ccccc2)cc1)CN1CCN(Cc2ccccc2)CC1 (stereo not drawn) [CBK074855C] | 94.6% | –
CC(=O)Nc1ccc(S(=O)(=O)N2CCN(C(=O)COc3ccc(Br)cc3)CC2)cc1 [CBK264234] | 94.1% | –
O=C(O)CCC1=C2c3ccccc3CCN2C(=O)CC1 [CBK286945] | 108% | –
CC[C@H]1CN(C(=O)c2cccnc2)CC[C@H]1CC(=O)NCc1cccs1 [CBK288773] | 89.7% | –
CCCC/C=C/c1nccnc1NCc1ccc2c(c1)OCO2 [CBK037304] | 98.1% | –
Cc1ccc(S(=O)(=O)n2c(SCc3ccccc3)nc3ccccc32)cc1 [CBK293933] | 104% | –
Cc1nn(-c2ccc(F)cc2)c(C)c1CNC(=O)CCC1CCCO1 (stereo not drawn) [CBK281456] | 86.8% | –
O=C(O)c1ccc(NS(=O)(=O)c2ccc3ccccc3c2)cc1 [CBK034053] | 96.6% | –
COCc1cc(C[C@H]2CNCC[C@H]2CC(=O)N2CCCCC2)no1 [CBK288899] | 109% | –
CSc1nnc(CCCNC(=O)c2cccc(C#N)c2)n1C1CCCC1 [CBK305459] | 80.9% | –
Cc1ccc(OCC(=O)Nc2ncc(Cc3ccc(F)cc3)s2)cc1 [CBK293930] | 82.2% | –
CN1CCCN(c2nc(-c3cccs3)cn3ccnc23)CC1 [CBK066652] | 89.5% | –
COc1ccc(OC)c(-c2ccc(NC(=O)c3ccc(Cl)cc3Cl)c(C(=O)O)c2)c1 [CBK000393D] | 90.8% | –
S=C1NCC(COc2ccc(Cl)cc2)O1 (stereo not drawn) [CBK015647] | 98.9% | –
